{"source": "paper PMC10123100", "about": "“Single-molecule visualization of stalled replication-fork rescue by the Escherichia coli Rep helicase” (Nucleic Acids Research, 2023)", "key": {"[1]": {"biological_target": "T1, Rep helicase (His6-Rep WT) (Escherichia coli, UniProt P09980)", "T1 construct": "full-length with His6 tag kept, plasmid pZX2198, expressed in E. coli BL21(DE3)/pLysS; monomer, multimer on long ssDNA", "T1 sequence (P09980 whole entry)": "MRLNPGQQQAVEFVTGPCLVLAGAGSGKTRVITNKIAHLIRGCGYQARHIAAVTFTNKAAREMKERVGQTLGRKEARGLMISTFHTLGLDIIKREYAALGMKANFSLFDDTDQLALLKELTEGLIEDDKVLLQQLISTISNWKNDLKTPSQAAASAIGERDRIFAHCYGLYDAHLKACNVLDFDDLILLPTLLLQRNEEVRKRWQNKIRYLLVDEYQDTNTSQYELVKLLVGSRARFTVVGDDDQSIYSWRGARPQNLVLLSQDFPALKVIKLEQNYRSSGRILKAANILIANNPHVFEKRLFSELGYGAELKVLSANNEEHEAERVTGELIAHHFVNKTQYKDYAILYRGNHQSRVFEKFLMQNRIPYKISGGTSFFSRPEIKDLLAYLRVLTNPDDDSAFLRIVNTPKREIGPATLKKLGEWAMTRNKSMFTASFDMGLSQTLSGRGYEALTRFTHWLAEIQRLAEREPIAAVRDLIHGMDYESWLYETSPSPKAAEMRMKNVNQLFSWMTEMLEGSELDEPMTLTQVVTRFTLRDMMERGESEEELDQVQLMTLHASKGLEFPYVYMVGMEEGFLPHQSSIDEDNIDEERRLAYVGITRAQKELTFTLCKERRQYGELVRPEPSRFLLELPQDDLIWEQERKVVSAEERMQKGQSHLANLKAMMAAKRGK", "test": "SPR, nucleotide-stimulated dissociation of Rep from immobilised dT35", "format": "binding", "conditions": "200 uM ATP, 20 nM Rep, biotinylated dT35, Mg2+, pH 7.6, 20 C"}, "[2]": {"biological_target": "T1, Rep helicase (His6-Rep WT)", "test": "SPR, nucleotide-stimulated dissociation of Rep from immobilised dT35", "format": "binding", "conditions": "200 uM ATP, 20 nM Rep, biotinylated dT35, Mg2+, pH 7.6, 20 C", "remark": "listed apart in the source"}}}
{"compound": "Nc1ncnc2c1ncn2[C@@H]1O[C@H](COP(=O)(O)OP(=O)(O)OP(=O)(O)O)[C@@H](O)[C@H]1O", "note": "[ATP]", "values": [{"measurement": "SPR, nucleotide-stimulated dissociation of Rep from immobilised dT35", "setting": "[1]", "value": "ATP, but not ADP or AMP-PNP, stimulated the dissociation of Rep WT and Rep ΔC33"}, {"measurement": "SPR, nucleotide-stimulated dissociation of Rep from immobilised dT35", "setting": "[2]", "value": "ATP, but not ADP or AMP-PNP, stimulated the dissociation of Rep WT and Rep ΔC33"}]}
